From the supplement of paper PMC11781733

How the values were obtained:
Conditions in all cases: exposure time: 15 min to 3 h acute
[1] = system: Dugesia japonica; assay: crawl-out incidence (% planarians); higher = higher incidence or increase relative to vehicle control
[2] = system: Dugesia japonica; assay: speed in dark vs vehicle (% change vs vehicle); higher = higher incidence or increase relative to vehicle control
Summary of the method: (§1)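 Values are median percent changes in crawling speed of intact, fasted Dugesia japonica, measured in the dark or during blue light by automated tracking and normalised per worm to the plate's vehicle median. Single worms in 200 μL per well of 48-well plates were tested 15 min to 3 h after exposure, with 0.5% DMSO or water as vehicle, and worms that crawled out were excluded.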

[3] = system: Dugesia japonica; assay: C-shape incidence (% planarians (vehicle-normalised)); higher = higher incidence or increase relative to vehicle control
Summary of the method: (§2)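 Values are the incidence of each body shape or of any abnormal shape, ×100, relative to in-plate vehicle controls, and negatives are set to 0. Fasted D. japonica planarians (5–7 days), one per 200 μL well in sealed 48-well plates, were scored blind by hand within 15 minutes–3 hours of exposure to at least 5 concentrations; worms that crawled out were excluded.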

[4] = system: Dugesia japonica; assay: corkscrew incidence (% planarians (vehicle-normalised)); higher = higher incidence or increase relative to vehicle control
Summary of the method: as §2

[5] = system: Dugesia japonica; assay: stickiness incidence (% planarians (vehicle-normalised)); higher = higher incidence or increase relative to vehicle control
Summary of the method: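 In the Stickiness assay, fasted Dugesia japonica planarians were each placed in one well of a sealed 48-well plate containing 200 μL of solution, with 0.5% DMSO or water as vehicle. Testing took place 15 min–3 h after exposure to half- or quarter-log concentration series. Stickiness was recorded as a binary endpoint, and its incidence was expressed relative to in-plate vehicle incidence after pooling technical triplicates and removing worms that crawled out. Negative values were set to 0 and all values were multiplied by 100.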

[6] = system: Dugesia japonica; assay: hyperkinesis incidence (% planarians (vehicle-normalised)); higher = higher incidence or increase relative to vehicle control
Summary of the method: as §2

[7] = system: Dugesia japonica; assay: speed first 30 s blue light vs vehicle (% change vs vehicle); higher = higher incidence or increase relative to vehicle control
Summary of the method: as §1

[8] = system: Dugesia japonica; assay: speed second 30 s blue light vs vehicle (% change vs vehicle); higher = higher incidence or increase relative to vehicle control
Summary of the method: as §1

[9] = system: Dugesia japonica; assay: pharynx extrusion incidence (% planarians (vehicle-normalised)); higher = higher incidence or increase relative to vehicle control
Summary of the method: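 Pharynx extrusion was scored manually and blind as a body-shape category, and its incidence was normalised to in-plate vehicle controls. Individual intact, fasted Dugesia japonica were kept in 200 μL per well of 48-well plates and tested 15 min to 3 h after exposure in water or 0.5% DMSO vehicle. Negatives were set to 0, and worms that crawled out were excluded.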

[10] = system: Dugesia japonica; assay: loss of phototaxis incidence (% planarians (vehicle-normalised)); higher = higher incidence or increase relative to vehicle control
Summary of the method: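 The endpoint was loss of phototaxis, scored yes/no by automated object tracking in intact, fasted Dugesia japonica kept singly in wells. Plates had 48 wells holding 200 μL, and worms were tested 15 min to 3 h after exposure in 0.5% DMSO or water vehicle. The incidence rate ×100 was normalised to in-plate vehicle controls, with negatives set to 0 and escaped worms excluded.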

[11] = system: Dugesia japonica; assay: total locomotor bursts minus vehicle (bursts difference vs vehicle); higher = higher incidence or increase relative to vehicle control
Summary of the method: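 Fasted Dugesia japonica planarians, one per well of a sealed 48-well plate in 200 μL solution, were tested 15 min–3 h after exposure to half- or quarter-log concentration series. The vehicle was 0.5% DMSO or water. Total locomotor bursts, an unstimulated behaviour, came from image-based object tracking, with technical triplicates totalling n = 24. Each planarian's value had the plate vehicle-control median subtracted, without ×100 scaling. The value is the median normalised response, and crawled-out worms were excluded.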

[12] = system: Dugesia japonica; assay: noxious heat displacement strength vs vehicle (% change vs vehicle); higher = higher incidence or increase relative to vehicle control
Summary of the method: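 With automated object tracking, the scrunching assay gave displacement strength under noxious heat for intact, fasted Dugesia japonica, each normalised to its plate's vehicle median and summarised as the median percent change. Worms sat singly in 200 μL in 48-well plates and were tested 15 min to 3 h after exposure in 0.5% DMSO or water vehicle; those that crawled out were excluded.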

[13] = system: Dugesia japonica; assay: contracted body shape incidence (% planarians (vehicle-normalised)); higher = higher incidence or increase relative to vehicle control
Summary of the method: as §2

[14] = system: Dugesia japonica; assay: anxiety (time in outer well region) vs vehicle (% change vs vehicle); higher = higher incidence or increase relative to vehicle control
Summary of the method: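 Time in the outer portion of each well was tracked by software for individual planarians, excluding any that crawled out, and the median normalized response is given. Worms (D. japonica, fasted 5–7 days) sat one per well in 200 μL in sealed 48-well plates, were exposed to at least 5 concentrations with n = 24 per concentration in technical triplicates, and were screened within 15 minutes–3 hours. Normalization divided each response by, or reduced it by, the plate vehicle median and multiplied the result by 100.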

[15] = system: Dugesia japonica; assay: any abnormal body shape incidence (% planarians (vehicle-normalised)); higher = higher incidence or increase relative to vehicle control
Summary of the method: as §2

[16] = system: Dugesia japonica; assay: resting fraction in dark vs vehicle (difference in fraction x100 vs vehicle); higher = higher incidence or increase relative to vehicle control
Summary of the method: (§3)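 Values give the median resting fraction in the dark or under blue light, obtained by automated tracking with the plate's vehicle median subtracted from each worm and the difference multiplied by 100. Intact, fasted Dugesia japonica were placed one per well of a 48-well plate in 200 μL, eight per concentration per plate in technical triplicate. Tracking ran 15 min to 3 h after exposure in 0.5% DMSO or water vehicle, and any worm that crawled out was excluded.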

[17] = system: Dugesia japonica; assay: loss of heat-induced scrunching incidence (% planarians (vehicle-normalised)); higher = higher incidence or increase relative to vehicle control
Summary of the method: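 The incidence of worms lacking a scrunching response to a noxious heat stimulus, normalised to vehicle controls within each plate, is the value listed. It appears ×100 with negatives set to 0. Single D. japonica planarians in 200 μL per well of 48-well plates were exposed to at least 5 concentrations (n = 24 per concentration) and tested within 15 minutes–3 hours, excluding worms that crawled out.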

[18] = system: Dugesia japonica; assay: resting fraction in blue light vs vehicle (difference in fraction x100 vs vehicle); higher = higher incidence or increase relative to vehicle control
Summary of the method: as §3

Compound | crawl-out incidence [1] | speed in dark [2] | C-shape incidence [3] | corkscrew incidence [4] | stickiness incidence [5] | hyperkinesis incidence [6] | speed first 30 s blue light [7] | speed second 30 s blue light [8] | pharynx extrusion incidence [9] | loss of phototaxis incidence [10] | total locomotor bursts minus vehicle [11] | noxious heat displacement strength [12] | contracted body shape incidence [13] | anxiety [14] | any abnormal body shape incidence [15] | resting fraction in dark [16] | loss of heat-induced scrunching incidence [17] | resting fraction in blue light [18]
CN(C)CCCN1c2ccccc2CCc2ccccc21 [imipramine] (10 µM) | 0 | -48.9 | 0 | 0 | 16.7 | 0 | -47.9 | -51.7 | 0 | 12.5 | 10.8 | -29.7 | 0 | 0.22 | 0 | 4.41 | ≤ 0 | 3.16
Cc1cc2c(s1)Nc1ccccc1N=C2N1CCN(C)CC1 [olanzapine] (316 µM) | 37.5 | -71.2 | 27.3 | 13.6 | 22.7 | 45.5 | -94.9 | -89.1 | 0 | 13.3 | 7 | -47.4 | 31.8 | -6.74 | 81.8 | 73.9 | 72.7 | 77.4
CC(NC(C)(C)C)C(=O)c1cccc(Cl)c1 (configuration not stated) [bupropion] (1000 µM) | 0 | -56.9 | 0 | 33.3 | 37.5 | 45.8 | -64.2 | -9.8 | 0 | ≤ 0 | -2.5 | -39.5 | 0 | 13.4 | 50 | 56.1 | 83.3 | 19.6
CN(C)CCC[C@@]1(c2ccc(F)cc2)OCc2cc(C#N)ccc21 [escitalopram] (100 µM) | 0 | -3.87 | 0 | 0 | ≤ 0 | 0 | -13.7 | -2.15 | 0 | 16.7 | 1.75 | -34 | 0 | 1.47 | 0 | -4.57 | 25 | -0.46
